# Test results reported in patent US8530512B2, “Broad spectrum gram-positive antimicrobials and anthelmintics with efficacy against drug-resistant strains and Mycobacterium species” (priority 2004, dated 2013).
# Like-named read-outs stand apart in the source and are kept apart here.
# How the values were obtained:
# [1] = tested on: Staphylococcus aureus ATCC 29213; assay: microbe, parasite or virus in culture; type: cell-based; settings: ATCC29213
# [2] = tested on: Staphylococcus aureus MRSA MC-1; assay: microbe, parasite or virus in culture; type: cell-based; settings: Staphylococcus aureus, MRSA, read-out: MIC S. aureus MC-1
# [3] = tested on: Enterococcus faecium VRE 1; assay: microbe, parasite or virus in culture; type: cell-based; settings: Enterococcus faecium, VRE
# Bacillus cereus = assay: microbe, parasite or virus in culture; type: cell-based; settings: Table 4; Bacillus cereus; read-out: MIC
# M. smegmatis = assay: MIC assay; type: cell-based; settings: Mycolicibacterium smegmatis; Table 6; read-out: MIC M. smegmatis
# [4] = tested on: Corynebacterium pseudodiphthericum; assay: microbe, parasite or virus in culture; type: cell-based; settings: Corynebacterium pseudodiphtheriticum; Table 4; Corynebacterium pseudodiphthericum; read-out: MIC
# Corynebacterium xerosis = assay: microbe, parasite or virus in culture; type: cell-based; settings: Table 4, read-out: MIC
# [5] = tested on: Enterococcus faecium VRE 14; assay: microbe, parasite or virus in culture; type: cell-based
# [6] = tested on: Enterococcus faecalis ATCC 29212; assay: microbe, parasite or virus in culture; type: cell-based; settings: ATCC29212; Table 4; Enterococcus faecalis ATCC 29212; read-out: MIC
# Streptococcus mitis = assay: microbe, parasite or virus in culture; type: cell-based; settings: Table 4, read-out: MIC
# Streptococcus agalactiae = assay: microbe, parasite or virus in culture; type: cell-based; settings: Table 4, read-out: MIC
# Listeria monocytogenes = assay: microbe, parasite or virus in culture; type: cell-based; settings: Table 4, read-out: MIC
# Mycobacterium bovis BCG = assay: microbe, parasite or virus in culture; type: cell-based; settings: Mycobacterium tuberculosis variant bovis BCG, Table 4, Mycobacterium bovis BCG
# [7] = tested on: Staphylococcus aureus MW 2; assay: MIC assay; type: cell-based; settings: MW2, Table 4
# Clostridium tertium = assay: MIC assay; type: cell-based; settings: Table 4
# Clostridium novyi A = assay: MIC assay; type: cell-based; settings: Table 4
# Clostridium difficile = assay: MIC assay; type: cell-based; settings: Clostridioides difficile, Table 4
# Propionibacterium acnes = assay: MIC assay; type: cell-based; settings: Cutibacterium acnes, Table 4
# [8] = tested on: Peptostreptococcus anaerobius; assay: MIC assay; type: cell-based; settings: Table 4
# [9] = tested on: Erysipelothrix rhusiopathiae; assay: MIC assay; type: cell-based; settings: Table 4
# Streptococcus pneumoniae = assay: MIC assay; type: cell-based; settings: Table 4; Streptococcus pneumoniae (source UWL)
# Streptococcus bovis = assay: MIC assay; type: cell-based; settings: Streptococcus equinus, Table 4
# Mycobacterium avium = assay: MIC assay; type: cell-based; settings: Mycobacterium avium
# Mycobacterium chelonae = assay: MIC assay; type: cell-based
# Mycobacterium fortuitum = assay: MIC assay; type: cell-based; settings: Mycolicibacterium fortuitum
# [10] = tested on: Mycobacterium intracellulare; assay: MIC assay; type: cell-based; settings: Mycobacterium intracellulare
# M. kansasii = assay: MIC assay; type: cell-based; settings: Mycobacterium kansasii
# [11] = tested on: methicillin-sensitive S. aureus (MSSA) strains; assay: MIC screening against MSSA strains; type: cell-based; settings: Table 5, 39 tested
# [12] = tested on: community-associated methicillin-resistant S. aureus (CA-MRSA) strains; assay: MIC screening against CA-MRSA strains; type: cell-based
# [13] = tested on: vancomycin-resistant enterococci; assay: microbe, parasite or virus in culture; type: cell-based; settings: Enterococcus, VRE, read-out: MICs
# [14] = tested on: Gram-positive bacteria tested; assay: organism not typed; type: cell-based
# [15] = tested on: Gram-positive bacterial species tested; assay: Minimal Bacterial Concentration Testing (MBC); type: cell-based
# Description: Following the MIC, the last three wells showing no bacterial growth were diluted and plated onto BHI agar to do MBC testing.
# [16] = Safety Testing with Swiss Webster Mice; type: in vivo
# C. elegans = assay: motility assay; type: in vivo; design: key to Movement score, 1/1600 / Movement score, 1/800 / Movement score, 1/400 / Movement score, 1/200 / Movement score, 1/100: normal (−); slow (+); very slow (++); not motile/paralyzed (+++); settings: Ive 1 ng/μL in all wells
# [17] = tested on: S. aureus strains tested, including MRSA; assay: MIC assay
# [18] = tested on: Enterococcus sp., including VRE strains; assay: MIC assay; settings: read-out: MICs
# S. aureus MW2 = assay: murine thigh abscess model of infection; settings: for CFU/thigh reduced: single intraperitoneal injection
smiles,measurement,setting,value
"COc1cc(O)cc(/C=C/c2cc3ccccc3s2)c1 [SK-03-92, (E)-3-(2-(benzo[b]thiophen-2-yl)vinyl)-5-methoxyphenol]",MIC,"[1]; Table 4, Staphylococcus aureus ATCC 29213, read-out: MIC",2 µg/mL
same,MIC,"[1]; Staphylococcus aureus, Table 6, read-out: MIC S. aureus ATCC 29213",4 µg/mL
same,MIC,[2],2 µg/mL
same,MIC,[3],2 µg/mL
same,MIC,Bacillus cereus,1 µg/mL
same,MIC,M. smegmatis,32 µg/mL
same,MIC,[4],2 µg/mL
same,MIC,Corynebacterium xerosis,2 µg/mL
same,MIC,[5],2 µg/mL
same,MIC,[6],4 µg/mL
same,MIC,Streptococcus mitis,2 µg/mL
same,MIC,Streptococcus agalactiae,2 µg/mL
same,MIC,Listeria monocytogenes,2 µg/mL
same,MIC,Mycobacterium bovis BCG,25 µg/mL
same,MIC,[7],2 µg/mL
same,MIC,Clostridium tertium,1 µg/mL
same,MIC,Clostridium novyi A,2 µg/mL
same,MIC,Clostridium difficile,2 µg/mL
same,MIC,Propionibacterium acnes,2 µg/mL
same,MIC,[8],1 µg/mL
same,MIC,[9],8 µg/mL
same,MIC,Streptococcus pneumoniae,16 µg/mL
same,MIC,Streptococcus bovis,2 µg/mL
same,MIC,"Mycobacterium avium; Table 6, read-out: MIC M. avium",16 µg/mL
same,MIC,"Mycobacterium avium; Table 4, read-out: MIC",16 µg/mL
same,MIC,"Mycobacterium chelonae; Table 4, Mycobacterium chelonae, read-out: MIC",32 µg/mL
same,MIC,"Mycobacterium chelonae; Table 6, read-out: MIC M. chelonae",32 µg/mL
same,MIC,"Mycobacterium fortuitum; Table 4, Mycobacterium fortuitum, read-out: MIC",16 µg/mL
same,MIC,"Mycobacterium fortuitum; Table 6, read-out: MIC M. fortuitum",16 µg/mL
same,MIC,"[10]; Table 6, read-out: MIC M. intracellulare",32 µg/mL
same,MIC,"[10]; Table 4, read-out: MIC",32 µg/mL
same,MIC,"M. kansasii; Table 4, Mycobacterium kamasii, read-out: MIC",16 µg/mL
same,MIC,"M. kansasii; Table 6, read-out: MIC M. kansasii",16 µg/mL
same,MIC range,[11],1 to 2 µg/mL
same,MIC,"[12]; Staphylococcus aureus, many MRSA strains",2 to 4 µg/mL
same,MIC range,"[12]; Table 5, CA-MRSA, 43 tested",2 to 4 µg/mL
same,MIC,[13],2 µg/mL
same,killing of Gram-positive bacterial species,[14]; all of the Gram-positive bacterial species tested,killed
same,MIC,[14]; variety of other Gram-positive species,1 to 8 µg/mL
same,MBC analysis,[15],bactericidal
same,harm to mice,"[16]; intraperitoneal injections up to 3 g/kg, preliminary",did not appear to harm the mice
same,harm to mice,[16]; ~2 g/kg dose intraperitoneally and after a repeated dose,did not harm mice
same,"Movement score, 1/100",C. elegans; dilution 1/100 of stock (10.24 μg/μL; SK-03-92 1.024 μg/μL),+
same,"Movement score, 1/200",C. elegans; dilution 1/200 of stock (10.24 μg/μL; SK-03-92 1.024 μg/μL),−
same,"Movement score, 1/400",C. elegans; dilution 1/400 of stock (10.24 μg/μL; SK-03-92 1.024 μg/μL),−
same,"Movement score, 1/800",C. elegans; dilution 1/800 of stock (10.24 μg/μL; SK-03-92 1.024 μg/μL),−
same,"Movement score, 1/1600","C. elegans; dilution 1/1600 of stock (10.24 μg/μL; SK-03-92 1.024 μg/μL), overnight 20° C.",−
same,MIC,"[17]; Staphylococcus aureus, MRSA, read-out: MICs",2 to 4 µg/mL
same,relative activity against S. aureus,[17]; comparison among analogs of Table 6,best activity
same,MIC,[18],2 to 4 µg/mL
same,CFU/thigh reduced,"S. aureus MW2; high dose, preliminary",3 logs
same,CFU/thigh reduced,"S. aureus MW2; low dose, preliminary",2.5 logs
same,in vivo efficacy,S. aureus MW2; thigh abscess model,in vivo efficacy
same,drop in the bacterial counts,"S. aureus MW2; two days after drug injection, preliminary",2-3 log
